Assay [1] has as its target T1, Cytochrome P450 1A1 (Homo sapiens, UniProt P04798).
T1 sequence (P04798 whole entry): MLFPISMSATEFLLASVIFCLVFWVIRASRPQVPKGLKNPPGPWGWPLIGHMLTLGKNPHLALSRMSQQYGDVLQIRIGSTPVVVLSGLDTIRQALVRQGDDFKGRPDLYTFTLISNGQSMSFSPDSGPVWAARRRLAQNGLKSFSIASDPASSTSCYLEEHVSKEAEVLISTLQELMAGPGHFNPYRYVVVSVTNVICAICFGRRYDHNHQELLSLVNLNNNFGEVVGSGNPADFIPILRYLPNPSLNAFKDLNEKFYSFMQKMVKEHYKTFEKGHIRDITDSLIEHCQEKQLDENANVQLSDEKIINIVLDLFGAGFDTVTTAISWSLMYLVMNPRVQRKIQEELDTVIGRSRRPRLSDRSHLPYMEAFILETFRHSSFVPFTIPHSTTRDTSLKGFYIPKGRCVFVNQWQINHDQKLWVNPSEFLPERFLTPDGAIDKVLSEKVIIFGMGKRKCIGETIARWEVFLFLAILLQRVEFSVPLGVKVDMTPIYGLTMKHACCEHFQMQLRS
Briefly: Competitive inhibition of human CYP1A1 using 7-ethoxyresorufin as substrate.

For assay [2], the species on record is Homo sapiens. Briefly: Selectivity ratio of IC50 for recombinant human CYP2C19 to IC50 for recombinant human CYP1A1.
The target in assay [3] is Cytochrome P450 2C9 (Homo sapiens, UniProt P11712). Briefly: Inhibition of recombinant human CYP2C9 expressed in HEK293 cells using 3-cyano-7-ethoxycoumarin as substrate pretreated for 30 mins followed by substrate addition measured for 60 mins by fluorescence assay. It is filed as ADME.
For assay [4], the species on record is Homo sapiens. The experiment in a line: Selectivity ratio of IC50 for human CYP1B1 expressed in yeast microsomal membranes to IC50 for human CYP1A1 expressed in yeast microsomal membranes. It is filed as cell membranes.
For assay [5], the target named is T1, Cytochrome P450 1A1. Briefly: Inhibition of human CYP1A1 expressed in yeast microsomal membranes using 7-ethoxyresorufin as substrate measured after 10 mins by fluorescence assay. It is filed as cell membranes.
In assay [6] the target is T2, Cytochrome P450 1A2 (Homo sapiens, UniProt P05177).
T2 sequence (P05177 whole entry): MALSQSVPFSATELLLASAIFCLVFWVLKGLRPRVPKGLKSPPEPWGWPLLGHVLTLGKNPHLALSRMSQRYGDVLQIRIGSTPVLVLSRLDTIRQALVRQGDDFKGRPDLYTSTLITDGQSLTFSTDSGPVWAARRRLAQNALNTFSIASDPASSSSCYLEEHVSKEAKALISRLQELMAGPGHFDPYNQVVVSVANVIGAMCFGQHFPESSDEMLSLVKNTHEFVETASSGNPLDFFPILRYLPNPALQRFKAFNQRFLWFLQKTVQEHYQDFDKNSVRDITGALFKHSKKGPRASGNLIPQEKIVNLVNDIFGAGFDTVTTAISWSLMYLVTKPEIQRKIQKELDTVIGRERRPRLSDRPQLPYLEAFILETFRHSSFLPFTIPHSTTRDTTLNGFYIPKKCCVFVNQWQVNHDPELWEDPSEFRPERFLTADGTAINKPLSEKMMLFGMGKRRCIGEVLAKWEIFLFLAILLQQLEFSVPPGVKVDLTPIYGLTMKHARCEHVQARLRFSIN
Briefly: Inhibition of human CYP1A2 expressed in yeast cells. Type of assay: ADME, cell-based.

Assay [7] deals with T3, Cytochrome P450 1B1 (Homo sapiens, UniProt Q16678).
T3 sequence (Q16678 whole entry): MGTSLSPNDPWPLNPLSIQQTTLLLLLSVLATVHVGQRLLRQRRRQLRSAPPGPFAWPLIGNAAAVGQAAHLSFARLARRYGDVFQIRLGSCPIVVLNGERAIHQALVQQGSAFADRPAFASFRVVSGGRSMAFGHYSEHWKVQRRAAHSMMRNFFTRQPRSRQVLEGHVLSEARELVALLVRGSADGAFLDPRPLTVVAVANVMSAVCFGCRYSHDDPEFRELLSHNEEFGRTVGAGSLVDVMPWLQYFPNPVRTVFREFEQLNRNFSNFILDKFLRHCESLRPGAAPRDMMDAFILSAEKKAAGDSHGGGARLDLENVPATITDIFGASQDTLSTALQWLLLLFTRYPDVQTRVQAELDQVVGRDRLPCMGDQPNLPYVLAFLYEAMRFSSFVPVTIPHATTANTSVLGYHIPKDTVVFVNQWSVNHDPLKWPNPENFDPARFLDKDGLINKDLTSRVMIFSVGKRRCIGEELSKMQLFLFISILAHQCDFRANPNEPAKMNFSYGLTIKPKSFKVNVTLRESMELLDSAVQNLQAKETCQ
The experiment in a line: Inhibition of human CYP1B1 expressed in yeast cells. It is filed as cell-based.

For assay [8], the target named is T1, Cytochrome P450 1A1. The experiment in a line: Inhibition of recombinant human CYP1A1 expressed in HEK293 cells using 7-ethoxyresorufin as substrate pretreated for 30 mins followed by substrate addition measured for 60 mins by fluorescence assay. It is filed as cell-based.
Assay [9] is filed under the species Homo sapiens. Briefly: Selectivity ratio of IC50 for recombinant human CYP2D6 to IC50 for recombinant human CYP1A1.
Assay [10] is filed under the species Homo sapiens. The experiment in a line: Selectivity ratio of IC50 for recombinant human CYP1B1 expressed in HEK293 cells to IC50 for recombinant human CYP1A1 expressed in HEK293 cells. It is filed as cell-based.
The target of assay [11] is T4, Cytochrome P450 2C8 (Homo sapiens, UniProt P10632).
T4 sequence (P10632 whole entry): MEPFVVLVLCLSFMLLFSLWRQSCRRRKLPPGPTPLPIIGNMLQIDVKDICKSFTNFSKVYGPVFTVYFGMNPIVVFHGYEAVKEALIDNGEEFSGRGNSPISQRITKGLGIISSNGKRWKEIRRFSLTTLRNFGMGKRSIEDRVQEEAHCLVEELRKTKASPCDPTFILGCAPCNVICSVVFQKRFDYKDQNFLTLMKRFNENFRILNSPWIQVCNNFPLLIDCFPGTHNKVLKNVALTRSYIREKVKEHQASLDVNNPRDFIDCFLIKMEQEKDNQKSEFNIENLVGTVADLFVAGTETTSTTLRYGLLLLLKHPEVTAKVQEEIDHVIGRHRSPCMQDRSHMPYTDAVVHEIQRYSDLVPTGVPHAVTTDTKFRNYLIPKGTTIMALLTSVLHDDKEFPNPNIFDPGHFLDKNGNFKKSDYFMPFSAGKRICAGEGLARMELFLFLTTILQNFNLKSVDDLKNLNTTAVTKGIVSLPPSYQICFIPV
The experiment in a line: Inhibition of human CYP2C8 expressed in yeast cells. It is filed as ADME, cell-based.

For assay [12], the target named is Cytochrome P450 2D6 (Homo sapiens, UniProt P10635). Briefly: Inhibition of human CYP2D6 expressed in yeast microsomal membranes using 7-ethoxy-methyloxy-3-cyanocoumarin as substrate measured after 10 mins by fluorescence assay. Type of assay: ADME, cell membranes, Microsomal Membrane.
Chain of Cytochrome P450 2D6 (P10635 whole entry): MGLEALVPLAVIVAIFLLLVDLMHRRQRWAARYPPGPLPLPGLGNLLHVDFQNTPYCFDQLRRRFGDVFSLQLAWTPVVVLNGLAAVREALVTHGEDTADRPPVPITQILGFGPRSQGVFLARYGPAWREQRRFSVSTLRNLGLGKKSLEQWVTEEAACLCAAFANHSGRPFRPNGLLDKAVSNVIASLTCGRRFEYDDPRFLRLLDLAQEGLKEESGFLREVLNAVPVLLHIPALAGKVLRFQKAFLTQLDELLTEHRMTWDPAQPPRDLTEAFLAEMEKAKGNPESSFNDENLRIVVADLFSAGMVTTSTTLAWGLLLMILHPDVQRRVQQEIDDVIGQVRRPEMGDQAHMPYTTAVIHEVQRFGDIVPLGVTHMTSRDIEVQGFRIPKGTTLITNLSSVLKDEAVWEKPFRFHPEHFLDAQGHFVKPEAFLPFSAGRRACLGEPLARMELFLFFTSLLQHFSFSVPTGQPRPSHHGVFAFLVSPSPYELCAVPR

Chain of Cytochrome P450 2C9 (P11712 whole entry): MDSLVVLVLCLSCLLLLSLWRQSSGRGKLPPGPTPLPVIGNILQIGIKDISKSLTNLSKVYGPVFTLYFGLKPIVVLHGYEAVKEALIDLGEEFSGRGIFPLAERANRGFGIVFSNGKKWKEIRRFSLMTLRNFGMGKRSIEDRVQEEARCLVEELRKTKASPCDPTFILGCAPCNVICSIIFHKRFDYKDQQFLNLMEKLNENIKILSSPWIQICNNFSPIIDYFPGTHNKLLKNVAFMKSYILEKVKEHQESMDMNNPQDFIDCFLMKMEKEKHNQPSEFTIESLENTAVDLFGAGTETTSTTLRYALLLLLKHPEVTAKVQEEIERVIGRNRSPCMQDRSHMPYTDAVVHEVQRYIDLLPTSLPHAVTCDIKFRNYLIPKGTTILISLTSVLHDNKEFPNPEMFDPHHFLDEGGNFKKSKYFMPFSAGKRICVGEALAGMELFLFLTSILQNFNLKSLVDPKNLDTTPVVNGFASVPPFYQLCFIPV

Regarding `COc1cc(/C=C/C(=O)c2ccncc2)cc(OC)c1OC`, in [1], the Ki (as a rule, a measure of affinity in units of concentration, obtained from inhibition or displacement) amounted to 280 nM. The Ratio IC50 in [2] was more than 100; in assay [4], more than 10; in assay [9] it was more than 100; in assay [10] it was less than 10. In addition, the IC50 (usually the concentration that inhibits the measured activity by half) in assay [3] is more than 10000 nM; in assay [5] it was 61 nM; in [6] it was 1820 nM; in assay [7], 6120 nM; in assay [8] it was 58 nM; in assay [11], 8920 nM. In assay [12], the IC50 amounted to 5000 nM.

The values are drawn from ChEMBL document CHEMBL4177690, “(E)-3-(3,4,5-Trimethoxyphenyl)-1-(pyridin-4-yl)prop-2-en-1-one, a heterocyclic chalcone is a potent and selective CYP1A1 inhibitor and cancer chemopreventive agent” (Bioorg Med Chem Lett, 2017).
